Test results as given in ChEMBL document CHEMBL1201862, “PubChem BioAssay data set” (2004).
Active and inactive are the calls of the source.

Legend:
[1] = target: Glyceraldehyde-3-phosphate dehydrogenase (Homo sapiens, UniProt P04406)
[2] = target: T1, Alkaline phosphatase, tissue-nonspecific isozyme (Homo sapiens, UniProt P05186); assay: human TNAP enzyme inhibitors, SAR follow-up, biochemical, luminescent, dose response (AID 1056)
T1 sequence (P05186 whole entry): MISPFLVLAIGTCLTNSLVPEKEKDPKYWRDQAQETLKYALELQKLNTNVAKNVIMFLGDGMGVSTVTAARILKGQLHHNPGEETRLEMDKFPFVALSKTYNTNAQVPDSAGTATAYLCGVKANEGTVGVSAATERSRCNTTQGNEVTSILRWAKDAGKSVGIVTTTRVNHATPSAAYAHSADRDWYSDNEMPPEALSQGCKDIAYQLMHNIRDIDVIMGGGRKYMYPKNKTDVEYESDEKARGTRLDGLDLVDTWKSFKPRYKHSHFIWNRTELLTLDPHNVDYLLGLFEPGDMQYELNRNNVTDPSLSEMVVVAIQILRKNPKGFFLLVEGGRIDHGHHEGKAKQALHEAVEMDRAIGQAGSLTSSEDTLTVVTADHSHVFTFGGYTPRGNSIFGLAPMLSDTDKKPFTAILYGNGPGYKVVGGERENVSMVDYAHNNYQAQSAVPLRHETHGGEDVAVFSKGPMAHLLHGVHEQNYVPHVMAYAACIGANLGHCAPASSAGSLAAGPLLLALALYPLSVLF

[3] = target: T2, G-protein coupled receptor 35 (Homo sapiens, UniProt Q9HC97); assay: SAR analysis of Agonists of the GPR35 Receptor using an Image-Based Assay - Set 4. [Related pubchem assays (depositor defined):AID2013, AID2026]; type: functional
T2 sequence (Q9HC97 whole entry): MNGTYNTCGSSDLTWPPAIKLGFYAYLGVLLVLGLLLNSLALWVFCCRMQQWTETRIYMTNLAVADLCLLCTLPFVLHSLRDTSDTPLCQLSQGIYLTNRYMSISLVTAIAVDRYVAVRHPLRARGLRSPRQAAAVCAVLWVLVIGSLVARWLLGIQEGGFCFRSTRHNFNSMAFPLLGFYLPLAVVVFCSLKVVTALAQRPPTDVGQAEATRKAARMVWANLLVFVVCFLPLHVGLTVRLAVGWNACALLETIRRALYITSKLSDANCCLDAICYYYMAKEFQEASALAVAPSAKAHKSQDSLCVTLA

[4] = target: T3, Cannabinoid receptor 1 (Homo sapiens, UniProt P21554); assay: SAR analysis of agonists of the Cannabinoid Receptor 1 using an Image-Based Assay - Set 4. [Related pubchem assays (depositor defined):AID2013, AID2026]; type: functional
T3 sequence (P21554 whole entry): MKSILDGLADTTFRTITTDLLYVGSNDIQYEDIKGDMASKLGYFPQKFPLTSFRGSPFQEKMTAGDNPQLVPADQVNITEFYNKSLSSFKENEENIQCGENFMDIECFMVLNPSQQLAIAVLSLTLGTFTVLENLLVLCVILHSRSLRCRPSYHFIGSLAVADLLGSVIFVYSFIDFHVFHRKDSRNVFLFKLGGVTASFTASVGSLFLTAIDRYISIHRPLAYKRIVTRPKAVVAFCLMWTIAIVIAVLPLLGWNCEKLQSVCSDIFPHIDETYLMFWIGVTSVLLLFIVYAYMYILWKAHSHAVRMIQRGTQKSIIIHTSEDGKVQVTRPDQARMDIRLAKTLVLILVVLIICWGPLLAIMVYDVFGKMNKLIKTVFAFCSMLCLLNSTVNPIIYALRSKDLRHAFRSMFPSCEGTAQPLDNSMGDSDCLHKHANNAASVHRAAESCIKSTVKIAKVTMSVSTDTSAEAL

[5] = target: T2, G-protein coupled receptor 35; assay: SAR analysis of Antagonists of the GPR35 Receptor using an Image-Based Assay - Set 6. [Related pubchem assays (depositor defined):AID2013, AID2026]; type: functional
[6] = target: T3, Cannabinoid receptor 1; assay: SAR analysis of antagonists of the Cannabinoid Receptor 1 using an Image-Based Assay - Set 4. [Related pubchem assays (depositor defined):AID2013, AID2026]; type: functional
[7] = target: G-protein coupled receptor 55 (Homo sapiens, UniProt Q9Y2T6); assay: SAR Analysis of Selective Antagonists of GPR55 using an Image-Based Assay - Set 4. [Related pubchem assays (depositor defined):AID2013, AID2026]; type: functional;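 note: antagonism of response to 5 µM lysophosphatidylinositol agonist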
G-protein coupled receptor 55, sequence (Q9Y2T6 whole entry): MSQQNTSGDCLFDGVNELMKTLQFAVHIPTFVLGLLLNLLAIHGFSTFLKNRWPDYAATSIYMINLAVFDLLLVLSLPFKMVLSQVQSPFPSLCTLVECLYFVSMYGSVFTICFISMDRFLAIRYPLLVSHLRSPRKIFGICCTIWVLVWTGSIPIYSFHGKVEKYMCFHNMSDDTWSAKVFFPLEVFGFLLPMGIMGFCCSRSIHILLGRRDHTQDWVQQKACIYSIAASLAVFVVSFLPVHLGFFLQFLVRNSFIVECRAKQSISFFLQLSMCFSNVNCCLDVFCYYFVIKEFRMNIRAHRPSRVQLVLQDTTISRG

[8] = target: T4, Cannabinoid receptor 2 (Homo sapiens, UniProt P34972); assay: SAR analysis of antagonists of the Cannabinoid Receptor 2 using an Image-Based Assay - Set 3. [Related pubchem assays (depositor defined):AID2013, AID2026]; type: functional
T4 sequence (P34972 whole entry): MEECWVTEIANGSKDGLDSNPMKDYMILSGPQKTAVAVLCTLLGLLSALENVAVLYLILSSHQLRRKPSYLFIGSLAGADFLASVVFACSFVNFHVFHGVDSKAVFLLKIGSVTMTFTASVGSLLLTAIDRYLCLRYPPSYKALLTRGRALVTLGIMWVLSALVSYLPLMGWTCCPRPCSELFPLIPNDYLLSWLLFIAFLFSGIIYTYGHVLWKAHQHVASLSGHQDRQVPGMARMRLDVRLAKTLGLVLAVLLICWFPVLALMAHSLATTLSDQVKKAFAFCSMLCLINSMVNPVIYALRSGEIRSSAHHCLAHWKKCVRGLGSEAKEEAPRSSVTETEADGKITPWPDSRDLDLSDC

[9] = target: T4, Cannabinoid receptor 2; assay: SAR analysis of agonists of the Cannabinoid Receptor 2 using an Image-Based Assay - Set 3. [Related pubchem assays (depositor defined):AID2013, AID2026]; type: functional
[10] = target: T5, Mu-type opioid receptor (Homo sapiens, UniProt P35372); assay: MOR agonists by imaging, SAR follow-up, image-based (AID 2352); type: functional
T5 sequence (P35372 whole entry): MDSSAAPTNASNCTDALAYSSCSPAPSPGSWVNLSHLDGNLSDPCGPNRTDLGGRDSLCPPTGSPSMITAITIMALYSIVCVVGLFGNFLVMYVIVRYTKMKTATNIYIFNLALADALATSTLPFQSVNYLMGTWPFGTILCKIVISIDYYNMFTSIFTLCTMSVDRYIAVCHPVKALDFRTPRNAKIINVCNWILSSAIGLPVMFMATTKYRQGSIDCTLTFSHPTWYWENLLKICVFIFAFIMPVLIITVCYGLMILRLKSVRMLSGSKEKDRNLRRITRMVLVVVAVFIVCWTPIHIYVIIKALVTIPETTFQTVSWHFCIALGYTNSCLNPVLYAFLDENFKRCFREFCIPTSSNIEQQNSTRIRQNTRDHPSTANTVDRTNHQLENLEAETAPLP

[11] = target: T6, Delta-type opioid receptor (Homo sapiens, UniProt P41143); assay: DOR agonists, SAR follow-up, image-based (AID 2370); type: functional
T6 sequence (P41143 whole entry): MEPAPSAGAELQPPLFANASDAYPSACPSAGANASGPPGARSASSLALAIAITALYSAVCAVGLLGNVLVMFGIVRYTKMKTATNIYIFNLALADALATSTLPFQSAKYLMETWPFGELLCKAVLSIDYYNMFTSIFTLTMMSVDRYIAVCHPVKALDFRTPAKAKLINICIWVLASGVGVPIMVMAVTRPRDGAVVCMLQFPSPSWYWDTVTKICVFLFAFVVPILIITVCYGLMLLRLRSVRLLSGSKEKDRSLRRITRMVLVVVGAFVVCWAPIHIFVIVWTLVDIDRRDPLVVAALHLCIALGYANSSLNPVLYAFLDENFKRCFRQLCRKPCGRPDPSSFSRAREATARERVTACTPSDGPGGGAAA

[12] = target: T7, Kappa-type opioid receptor (Homo sapiens, UniProt P41145); assay: KOR antagonists by imaging, SAR follow-up, image-based (AID 2348); type: functional
T7 sequence (P41145 whole entry): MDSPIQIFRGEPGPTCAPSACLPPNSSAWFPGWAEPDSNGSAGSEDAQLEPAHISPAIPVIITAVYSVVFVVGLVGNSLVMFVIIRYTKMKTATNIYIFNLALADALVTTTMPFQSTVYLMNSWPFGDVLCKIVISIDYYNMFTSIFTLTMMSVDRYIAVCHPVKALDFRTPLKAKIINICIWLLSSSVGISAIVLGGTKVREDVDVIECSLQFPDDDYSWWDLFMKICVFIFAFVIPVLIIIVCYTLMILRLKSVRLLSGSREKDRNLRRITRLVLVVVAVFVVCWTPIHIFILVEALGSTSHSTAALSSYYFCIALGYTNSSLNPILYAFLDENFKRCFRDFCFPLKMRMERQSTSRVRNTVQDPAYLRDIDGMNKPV

[13] = target: T5, Mu-type opioid receptor; assay: MOR antagonists, SAR follow-up, image-based (AID 2420); type: functional;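 note: compounds added before stimulation of receptor with agonist DAMGO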
[14] = target: T7, Kappa-type opioid receptor; assay: KOR agonist analogs, imaging readout, SAR follow-up, image-based (AID 2359); type: functional
[15] = target: T6, Delta-type opioid receptor; assay: DOR antagonists, SAR follow-up, image-based (AID 2357); type: functional
[16] = target: T7, Kappa-type opioid receptor; assay: kappa opioid receptor blockers, cell-based, luminescence, beta-arrestin, SAR follow-up (AID 2285); type: functional
[17] = target: T8, SUMO-activating enzyme (Homo sapiens, UniProt Q9UBT2); assay: SUMOylation inhibitor hit validation, confirmation, SUMOylation inhibitor project, biochemical, AlphaScreen (AID 2018); type: functional
T8 sequence (Q9UBE0 whole entry): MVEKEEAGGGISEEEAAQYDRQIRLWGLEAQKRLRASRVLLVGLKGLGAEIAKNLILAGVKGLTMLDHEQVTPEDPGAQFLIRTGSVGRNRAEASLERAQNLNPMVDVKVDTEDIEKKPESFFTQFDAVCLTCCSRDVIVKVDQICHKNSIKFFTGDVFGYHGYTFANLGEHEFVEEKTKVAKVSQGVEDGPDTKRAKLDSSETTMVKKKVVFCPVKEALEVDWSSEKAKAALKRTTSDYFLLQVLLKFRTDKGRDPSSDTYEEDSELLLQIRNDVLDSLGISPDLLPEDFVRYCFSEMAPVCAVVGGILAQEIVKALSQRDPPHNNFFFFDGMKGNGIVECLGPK
T8 sequence (Q9UBT2 whole entry): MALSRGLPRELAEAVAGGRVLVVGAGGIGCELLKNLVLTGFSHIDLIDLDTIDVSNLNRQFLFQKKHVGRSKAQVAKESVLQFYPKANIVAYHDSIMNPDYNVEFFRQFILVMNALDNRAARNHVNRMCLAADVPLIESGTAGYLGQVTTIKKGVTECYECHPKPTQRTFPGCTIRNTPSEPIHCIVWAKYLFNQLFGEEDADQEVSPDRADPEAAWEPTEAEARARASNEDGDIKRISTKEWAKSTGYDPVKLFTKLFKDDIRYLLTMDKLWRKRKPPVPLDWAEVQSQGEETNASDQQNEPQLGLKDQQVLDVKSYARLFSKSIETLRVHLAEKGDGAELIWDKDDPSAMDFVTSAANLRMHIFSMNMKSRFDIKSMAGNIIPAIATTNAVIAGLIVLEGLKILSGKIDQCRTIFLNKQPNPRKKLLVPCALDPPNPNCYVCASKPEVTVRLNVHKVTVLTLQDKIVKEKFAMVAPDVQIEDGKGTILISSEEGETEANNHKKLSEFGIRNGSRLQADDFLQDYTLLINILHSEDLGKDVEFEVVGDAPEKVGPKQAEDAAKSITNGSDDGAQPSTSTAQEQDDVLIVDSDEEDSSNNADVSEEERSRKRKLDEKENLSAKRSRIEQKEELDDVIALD

[18] = target: T8, SUMO-activating enzyme; assay: inhibitors of in vitro SUMOylation cascade, primary screen, biochemical, HTRF, uHTS (AID 2006); type: protein-complex assay
[19] = NIH-3T3 fibroblast cytotoxicity, dose response, cytotoxicity control, cell-based, fluorescence, Alamar Blue, secondary assay (AID 2327); type: functional;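 note: NIH-3T3 mouse fibroblasts cultured with fluconazole at 8 µg/mL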
[20] = system: Streptococcus sp. 'group A'; assay: growth inhibition of control SK(-) GAS strain, dose response, counter-screen for streptokinase expression inhibitor project, luminescence, kanamycin, BacTiterGlo, confirmation (AID 1900); type: functional, organism-based
[21] = target: T9, Streptokinase A (Streptococcus pyogenes serotype M1, UniProt P10520); assay: S. pyogenes streptokinase expression inhibitors, potency, dose response, plasminogen activation absorbance, OD405 (AID 1914); type: functional, Streptococcus pyogenes M1 GAS;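 note: secreted streptokinase activity via plasminogen activation per viability signal from cell pellet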
T9 sequence (P10520 whole entry): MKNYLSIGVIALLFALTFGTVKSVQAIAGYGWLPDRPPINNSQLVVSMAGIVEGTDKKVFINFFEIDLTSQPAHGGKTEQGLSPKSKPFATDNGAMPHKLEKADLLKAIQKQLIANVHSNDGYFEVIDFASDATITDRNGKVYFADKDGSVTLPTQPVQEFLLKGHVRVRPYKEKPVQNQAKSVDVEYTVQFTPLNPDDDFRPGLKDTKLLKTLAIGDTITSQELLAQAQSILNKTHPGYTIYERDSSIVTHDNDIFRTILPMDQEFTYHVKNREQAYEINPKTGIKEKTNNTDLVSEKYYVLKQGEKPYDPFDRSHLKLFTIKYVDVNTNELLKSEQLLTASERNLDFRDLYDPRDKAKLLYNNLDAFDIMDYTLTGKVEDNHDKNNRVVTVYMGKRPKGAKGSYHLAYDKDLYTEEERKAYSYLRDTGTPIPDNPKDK

[22] = C. albicans growth with fluconazole, confirmation, fluorescence, retest (AID 2467); type: functional, cell-based
[23] = system: Streptococcus; assay: Group A Streptococcus viability loss, dose response, counter-screen for streptokinase expression inhibitor project, luminescence, BacTiterGlo (AID 1915); type: functional, organism-based;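 note: potency for reduction of bacterial viability or growth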
[24] = system: T-cell; assay: inhibitors of CD8+ T cell–vesicle binding, dose response, mouse 2C CD8+ T cells, flow cytometry (AID 485284); type: functional
[25] = target: Heat shock protein HSP 90-alpha (Homo sapiens, UniProt P07900); type: functional, organism-based
[26] = system: INS1; assay: beta cell apoptosis inhibitors, cytokine rescue, dose response, luminescence, retest (AID 449756); type: functional, cell-based; conditions: Rattus norvegicus;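 note: cell death triggered by IL-1 beta plus TNF-alpha plus IFN-gamma mixture; protective hits raise ATP signal compared with cytokine alone wells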
[27] = target: Dual specificity tyrosine-phosphorylation-regulated kinase 1A (Rattus norvegicus, UniProt Q63470); type: biochemical, Homo sapiens

Glyceraldehyde-3-phosphate dehydrogenase, sequence (P04406 whole entry): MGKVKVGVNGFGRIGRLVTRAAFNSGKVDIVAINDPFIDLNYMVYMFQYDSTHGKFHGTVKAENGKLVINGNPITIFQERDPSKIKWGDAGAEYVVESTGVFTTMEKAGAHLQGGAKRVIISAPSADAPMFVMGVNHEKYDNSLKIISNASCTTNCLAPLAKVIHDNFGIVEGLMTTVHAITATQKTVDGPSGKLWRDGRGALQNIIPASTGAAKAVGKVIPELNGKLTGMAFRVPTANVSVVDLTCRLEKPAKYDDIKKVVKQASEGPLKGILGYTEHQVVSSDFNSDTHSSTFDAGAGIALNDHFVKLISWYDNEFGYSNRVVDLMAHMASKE

COc1ccc(Cc2nnc(N3C(=O)[C@H]4CCCC[C@H]4C3=O)[nH]2)cc1
IC50 [1]: > 100 µM (not active)
IC50 [2]: > 100 µM (inactive)

CCOc1ccc(-c2n[nH]c(C)c2-c2ccc(OC)cc2)c(O)c1
EC50 [3]: 25.5 µM (inactive)
EC50 [4]: > 32 µM (inactive)
IC50 [5]: > 32 µM (inactive)
IC50 [6]: 0.85 µM (active)
IC50 [7]: 15.6 µM (inactive)
IC50 [8]: 3.79 µM (active)
EC50 [9]: 31.6 µM (inactive)

O=C(NC(NC(=S)Nc1ccc(Cl)c(Cl)c1)C(Cl)(Cl)Cl)OCc1ccccc1 (centres undefined)
EC50 [10]: > 32 µM (inactive)
EC50 [11]: > 32 µM (inactive)
IC50 [12]: 11.9 µM (inactive)
IC50 [13]: > 32 µM (inactive)
EC50 [14]: > 32 µM (inactive)
IC50 [15]: > 32 µM (inactive)
IC50 [16]: > 10 µM (inactive)

Cc1ccc(C(C)C(=O)N2CCC(n3nc(-c4ccccc4)oc3=O)CC2)cc1 (centres undefined)
EC50 [3]: > 32 µM (inactive)
EC50 [4]: > 32 µM (inactive)
IC50 [5]: > 32 µM (inactive)
IC50 [6]: 3.31 µM (active)
IC50 [7]: 7.6 µM (active)
IC50 [8]: 22.9 µM (inactive)
EC50 [9]: > 32 µM (inactive)

Sc1nnc(-c2ccncc2)n1/N=C/c1cn(-c2ccccc2)nc1-c1ccc(Cl)cc1
IC50 [17]: 3.28 µM (active)
IC50 [18]: 28.8 µM (active)

C=CC(C)(C)c1c(O)c(CC=C(C)C)c(O)c2c(=O)c3ccc(O)c(O)c3oc12 [GERONTOXANTHONE I]
EC50 [19]: > 160 µM (inconclusive)
EC50 [20]: 2.29 µM (active)
EC50 [21]: > 150 µM (not active)
EC50 [22]: > 38 µM (not active)
EC50 [23]: 7.75 µM (active)
EC50 [24]: 2.86 µM (active)
AC50 [25]: 8.03 µM (active)
AC50 [26]: 3.34 µM (active)
AC50 [27]: 8.27 µM (active)
